This data set has as its system Yap1 mRNA. The experiment in a line: Antisense inhibition of human Yap1 in A-431 cells by cEt gapmers, single dose (Example 3, RTS36584). The data set is classed as cell-based. The gist of the method:
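Single-dose free-uptake screen of 3-10-3 cEt gapmers in A-431 cells at 2,000 nM over about 48 h. Values are % untreated control Yap1 mRNA.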

Setting [1] is: Table 26, Yap1 mRNA by 3-10-3 cEt gapmers targeting SEQ ID NO.: 1, and 2, percent of untreated control.
Where [2] appears, read: Table 13, A-431 cells, 5,000 cells per well, free uptake, 2,000 nM modified oligonucleotide, approx. 48 hours, RTS36584, normalized to RIBOGREEN, Yap1 mRNA relative to untreated control cells.
The mark [3] stands for this setting: Table 9, A-431 cells, 5,000 cells per well, free uptake, 2,000 nM, approximately 48 hours, RTS36584, normalized to RIBOGREEN, Yap1 mRNA relative to untreated control cells.
[4] abbreviates: Table 11, A-431 cells, 5,000 cells per well, free uptake, 2,000 nM oligonucleotide, approx. 48 hours, primer probe set RTS36584, Yap1 mRNA normalized to RIBOGREEN, percent of untreated control.
Where [5] appears, read: Table 28, Yap1 mRNA as percent of untreated control, 3-10-3 cEt gapmers targeting SEQ ID NO.: 1, and 2.

From patent US11214803B2, “Modulators of YAP1 expression” (Ionis Pharmaceuticals, Inc., priority 2019, dated 2022) come the findings set out here.

Strand notation (5' to 3'): a small letter for the sugar, then the base; units joined by * are phosphorothioate-linked, units joined directly phosphodiester-linked; [ ] holds rarer units or linkages, { } end groups; capitals alone tell only the bases. k = constrained ethyl (cEt); [5mC] = 5-methylcytosine; d = 2'-deoxy (DNA)

“958532 (kG*kA*kA*dG*dT*dA*dG*dG*dA*dG*d[5mC]*dA*dA*kG*kT*k[5mC]; antisense) [Compound 958532]”: the “YAP1 (% UTC)” value (Table 10, A-431 cells, 5,000 cells per well, free uptake, 2,000 nM oligonucleotide, approx. 48 hours, primer probe set RTS36584, Yap1 mRNA normalized to RIBOGREEN, percent of untreated control) is recorded as 2 % UTC. On to “1074828 (kA*kT*kA*dA*dA*dA*dT*d[5mC]*d[5mC]*dA*d[5mC]*d[5mC]*dT*kG*kA*kG; antisense) [compound 1074828]”, for which, under setting [1], the “YAP1 (% UTC)” value is 58 % UTC.

Regarding “1075469 (antisense kT*kG*kA*dT*dA*dT*dA*dA*dT*dG*dA*d[5mC]*d[5mC]*kA*kA*kG) [compound 1075469]”, the “YAP1 (% UTC)” value (Table 27, Yap1 mRNA by 3-10-3 cEt gapmers targeting SEQ ID NO.: 1, and 2, percent of untreated control) was 25 % UTC. “958490 (kG*kT*kG*dA*d[5mC]*dA*dT*dG*dA*dA*dG*d[5mC]*dA*kT*k[5mC]*kT; antisense) [Compound 958490]”: the “YAP1 (% UTC)” value under setting [2] was 5 % UTC. Regarding “958374 (antisense k[5mC]*kA*kG*dA*dG*dG*dT*dG*d[5mC]*dT*dA*dG*d[5mC]*kT*kG*kG) [Compound 958374]”, the “YAP1 (% UTC)” value (Table 8, A-431 cells, 5,000 cells per well, free uptake, 2,000 nM, approximately 48 hours, RTS36584, normalized to RIBOGREEN, Yap1 mRNA relative to untreated control cells) came out at 38 % UTC.

Take “958616 (antisense kG*kG*kT*dG*dG*dT*d[5mC]*dT*dT*dG*dT*dT*d[5mC]*kT*kT*kA) [Compound 958616]”: the “YAP1 (% UTC)” value under setting [3] turned out to be 10 % UTC. As for “1074284 (antisense k[5mC]*kA*kA*dA*dA*d[5mC]*dG*dA*dG*dG*dG*dT*d[5mC]*kA*kA*kG) [compound 1074284]”, under setting [1], the “YAP1 (% UTC)” value was found to be 21 % UTC. Take “1076492 (kA*kA*kA*dA*dG*dA*dT*dA*d[5mC]*d[5mC]*d[5mC]*d[5mC]*d[5mC]*kA*kG*kT; antisense) [compound 1076492]”: under setting [1], the “YAP1 (% UTC)” value amounted to 47 % UTC. Consider “958673 (kA*kG*kA*dA*d[5mC]*dT*dT*dA*dG*dT*dT*d[5mC]*d[5mC]*k[5mC]*kT*kT; antisense) [Compound 958673]”, for which the “YAP1 (% UTC)” value under setting [4] worked out at 30 % UTC. In the case of “958595 (k[5mC]*k[5mC]*kA*d[5mC]*dA*dT*d[5mC]*dA*dA*dG*dG*d[5mC]*dT*kA*kT*kG; antisense) [Compound 958595]”, the “YAP1 (% UTC)” value under setting [2] came to 8 % UTC. As to “958539 (kT*k[5mC]*kT*dA*dT*d[5mC]*d[5mC]*dA*dG*dG*dG*dT*d[5mC]*kA*kA*kT; antisense) [Compound 958539]”, under “Table 12, A-431 cells, 5,000 cells per well, free uptake, 2,000 nM modified oligonucleotide, approx. 48 hours, RTS36584, normalized to RIBOGREEN, Yap1 mRNA relative to untreated control cells”, the “YAP1 (% UTC)” value was found to be 11 % UTC. Take “958593 (kG*kG*kT*d[5mC]*dA*dG*dT*dA*d[5mC]*dA*dG*dA*dG*kG*kG*k[5mC]; antisense) [Compound 958593]”: the “YAP1 (% UTC)” value under setting [4] was 7 % UTC. For “958735 (antisense kA*kG*k[5mC]*dA*dA*dT*d[5mC]*dT*dT*dG*dT*dG*dG*kA*kT*k[5mC]) [Compound 958735]”, the “YAP1 (% UTC)” value under setting [2] is on record as 7 % UTC.

Consider “958630 (antisense kG*k[5mC]*kG*dG*dT*dA*dA*d[5mC]*dT*d[5mC]*dT*dT*d[5mC]*kT*kT*kT) [Compound 958630]”, for which the “YAP1 (% UTC)” value under setting [2] was 52 % UTC. With “1076020 (k[5mC]*k[5mC]*k[5mC]*d[5mC]*dA*dA*d[5mC]*dA*d[5mC]*dT*dA*dA*dT*kA*kG*kG; antisense) [compound 1076020]”, the “YAP1 (% UTC)” value (Table 34, Yap1 mRNA as percent of untreated control, 3-10-3 cEt gapmers targeting SEQ ID NO: 1 and 2, single dose) was determined as 60 % UTC. As to “958808 (kA*kG*k[5mC]*dG*dA*dT*dT*dG*dG*d[5mC]*d[5mC]*dT*d[5mC]*k[5mC]*k[5mC]*kA; antisense) [Compound 958808]”, the “YAP1 (% UTC)” value under setting [4] is listed as 59 % UTC. As for “958496 (k[5mC]*k[5mC]*kT*dT*dA*dT*dA*dA*dG*d[5mC]*dT*d[5mC]*d[5mC]*kT*kA*kA; antisense) [Compound 958496]”, under setting [3], the “YAP1 (% UTC)” value was 3 % UTC. “1074126 (k[5mC]*kT*kG*dG*d[5mC]*dG*dG*d[5mC]*dT*dG*d[5mC]*dG*d[5mC]*k[5mC]*kT*k[5mC]; antisense) [compound 1074126]”: under setting [5], the “YAP1 (% UTC)” value is 111 % UTC.

As to “958750 (antisense kT*kG*kT*dA*dA*dG*dA*dG*dG*dA*dG*dA*d[5mC]*k[5mC]*kA*k[5mC]) [Compound 958750]”, the “YAP1 (% UTC)” value under setting [2] was 28 % UTC. On to “1076334 (antisense kA*k[5mC]*k[5mC]*dT*dA*dT*dA*dA*dG*dG*dA*dA*dT*kG*kG*k[5mC]) [compound 1076334]”, for which the “YAP1 (% UTC)” value under setting [5] amounted to 108 % UTC.
